Experimental data: patent US9795570B2, “Modulation of macrophage phenotype by emodin” (University of South Carolina, priority 2016, dated 2017)

Assays:
IRF4 = IRF4 protein by western blotting; assay type: cell-based, mouse; conditions: IL4, emodin 0-50 μM, 6 h
Experimental: (§1) Following stimulation with IL4 or LPS+IFNγ with or without emodin for varying periods, macrophages were lysed with cell signaling lysis buffer (Millipore) for whole cell lysates. Cytoplasmic and nuclear extracts were prepared using the Epiquik Nuclear Extraction kit (Epigentek, Farmingdale, N.Y.). Total protein was separated on 4-20% Tris-glycine pre-cast gels (Pierce) and transferred onto Nitrocellulose membranes (Bio-Rad Life Science, Hercules, Calif.). The membranes were then probed with HRP conjugated secondary antibodies, and signals were detected using Pierce ECL Western Blotting Substrate (Pierce).

[1] = system: Peritoneal macrophages from C57Bl/6 mice; assay: Macrophages stimulated with EO771 tumor conditioned medium (qPCR, histone kit, ChIP); assay type: cell-based, mouse
Experimental: 4T1 cells were obtained from the American Type Culture Collection (ATCC), and EO771 cells were developed from an ER+ spontaneous mammary adenocarcinoma. The cells were maintained in culture according to standard practice. For tumor conditioned medium (TCM) collection, cells were grown until they were 80-90% confluent. Following, the medium was replaced with serum free (SF) DMEM and the cells were cultured for 48 h. The medium was then collected and passed through a 0.45 μm filter (Millipore Corp., Bedford, Mass.). The medium was concentrated 10 times using centrifuge filters with a 3,000 MW cutoff (Millipore). Before use the concentrated conditioned medium was diluted 1:2 with fresh SF DMEM.
Mice were injected with 3 mL of 4% thioglycollate solution. After 3 d, macrophages were collected by peritoneal lavage with PBS. The cells were resuspended in DMEM with 10% FBS and cultured for 2 h. The non-adherent cells were then washed away and the remaining cells were cultured overnight in SF DMEM. The cells were then treated with TCM with or without emodin.
For qPCR, cells were lysed with Qiazol, and RNA was extracted using Zymo research Direct-zol RNA isolation kit. cDNA was then made from 1 μg of RNA using iScript cDNA Synthesis Kit (Bio-Rad Life Science, Hercules, Calif.). Run conditions were 95° C. for 10 s, 58° C. for 15 s, 70° C. for 15 s. Samples were run in duplicate on a Bio-rad CFX Real Time thermocycler.
Macrophages were fixed in 1% formaldehyde. Excess formaldehyde was quenched with glycine, and the cells were collected in PBS by scraping. The cells were lysed (0.5% IGEPAL, 4 mM HEPES), and the nuclei were resuspended in nuclear lysis buffer (1% SDS, 10 mM EDTA, and 50 mM Tris, pH 8.1). The DNA was sheared by sonication using a Diagnode Bioruptor Pico (Diagenode, Denville, N.J.) for 25 cycles of 30 s on/30 s off. Then 8 μg chromatin was diluted 1:10 (0.01% SDS, 1.1% Triton X-100, 1.2 mM EDTA, 16.7 mM Tris-HCl, pH 8.1, 167 mM NaCl), and 2% of the input was removed from each sample and saved for analysis. Anti-H3K27m3 (Abcam) was added to each sample along with 20 μL of protein A+G magnetic beads (Millipore), and the samples were incubated overnight at 4° C. The beads were washed with low salt, high salt, LiCl, and TE wash buffers sequentially, and the DNA was eluted off the beads with Proteinase K at 62° C. for 2 h (elution buffer: 200 mM NaCl, 1% SDS and 50 mM Tris). The DNA was then analyzed by qPCR.
In order to detect genome wide levels of histone H3 modifications, histones were isolated from macrophages treated with TCM with or without emodin for 24 h using EpiQuik total histone extraction kits (Epigentek, Farmingdale, N.Y.) according to the manufacturer's instructions. Histones (100 ng) were then analyzed using an EpiQuik Histone H3 modification kits (EpiGentek) according to the manufacturer's instructions.

[2] = system: mouse peritoneal macrophages; assay: NO production assay; assay type: cell-based; conditions: LPS/IFNγ 24 h, emodin 0-50 μM
Experimental: Macrophages were stimulated with LPS+IFNγ for 24 h with various concentrations of emodin (0-50 μM). The culture media was then collected and the NO content was detected using a Nitrite/Nitrate colormetric kit (Sigma-Aldrich) according to the manufacturer's instructions. The assay was read using a Spectramax M5 microplate reader (Molecular Devices, Sunnyvale, Calif.).

[3] = system: NFκB p65, STAT1, IRF5, STAT6, IRF4; assay: Nuclear translocation of transcription factors (western blotting of nuclear fractions); assay type: cell-based, mouse; conditions: emodin 50 μM 24 h
Experimental: as §1

Structure (SMILES): Cc1cc(O)c2c(c1)C(=O)c1cc(O)cc(O)c1C2=O [emodin]
- IRF4 protein production (IRF4): dose dependently inhibited
- TCM-decreased H3K27m3 on the promoters of IRF4, Arg1, and C/EBPβ ([1]; ChIP assay): reversed the reduction
- TCM-increased expression of ICAM1 ([1]; EO771 TCM, 24 h, qPCR): dose dependently blocked
- TCM-induced expression of Arg1, C/EBPβ and IRF4 ([1]; EO771 TCM, 24 h, qPCR): dose-dependently inhibited
- expression of CSFr1 ([1]; EO771 TCM, 24 h, qPCR): decreased the expression
- expression of MMP2 and MMP9 ([1]; EO771 TCM, 24 h, qPCR): inhibited expression
- TCM-increased expression of JMJD3 ([1]; EO771 TCM, emodin 25 μM or 50 μM, 24 h): significantly attenuated
- global levels of H3K27 methylation ([1]; EpiQuik histone modification kit): no effects
- NO production [2]: dose dependently inhibited
- STAT6 nuclear translocation ([3]; IL4 stimulation): drastically inhibit
- nuclear IRF4 ([3]; IL4 stimulation): inhibited
- NFκB p65 nuclear translocation ([3]; LPS/IFNγ stimulation): drastically inhibit
- STAT1 and IRF5 nuclear translocation ([3]; LPS/IFNγ stimulation): inhibited
